Measurements published in ChEMBL document CHEMBL3991601, “The target landscape of clinical kinase drugs” (Science, 2017).
Activity calls are given as the source filed them. On the calls: in the data inactive means no Kd found up to 30 µM.

Molecular target: PAS domain-containing serine/threonine-protein kinase (Homo sapiens, UniProt Q96RG2)
Sequence (Q96RG2 whole entry, the tested form may be a part): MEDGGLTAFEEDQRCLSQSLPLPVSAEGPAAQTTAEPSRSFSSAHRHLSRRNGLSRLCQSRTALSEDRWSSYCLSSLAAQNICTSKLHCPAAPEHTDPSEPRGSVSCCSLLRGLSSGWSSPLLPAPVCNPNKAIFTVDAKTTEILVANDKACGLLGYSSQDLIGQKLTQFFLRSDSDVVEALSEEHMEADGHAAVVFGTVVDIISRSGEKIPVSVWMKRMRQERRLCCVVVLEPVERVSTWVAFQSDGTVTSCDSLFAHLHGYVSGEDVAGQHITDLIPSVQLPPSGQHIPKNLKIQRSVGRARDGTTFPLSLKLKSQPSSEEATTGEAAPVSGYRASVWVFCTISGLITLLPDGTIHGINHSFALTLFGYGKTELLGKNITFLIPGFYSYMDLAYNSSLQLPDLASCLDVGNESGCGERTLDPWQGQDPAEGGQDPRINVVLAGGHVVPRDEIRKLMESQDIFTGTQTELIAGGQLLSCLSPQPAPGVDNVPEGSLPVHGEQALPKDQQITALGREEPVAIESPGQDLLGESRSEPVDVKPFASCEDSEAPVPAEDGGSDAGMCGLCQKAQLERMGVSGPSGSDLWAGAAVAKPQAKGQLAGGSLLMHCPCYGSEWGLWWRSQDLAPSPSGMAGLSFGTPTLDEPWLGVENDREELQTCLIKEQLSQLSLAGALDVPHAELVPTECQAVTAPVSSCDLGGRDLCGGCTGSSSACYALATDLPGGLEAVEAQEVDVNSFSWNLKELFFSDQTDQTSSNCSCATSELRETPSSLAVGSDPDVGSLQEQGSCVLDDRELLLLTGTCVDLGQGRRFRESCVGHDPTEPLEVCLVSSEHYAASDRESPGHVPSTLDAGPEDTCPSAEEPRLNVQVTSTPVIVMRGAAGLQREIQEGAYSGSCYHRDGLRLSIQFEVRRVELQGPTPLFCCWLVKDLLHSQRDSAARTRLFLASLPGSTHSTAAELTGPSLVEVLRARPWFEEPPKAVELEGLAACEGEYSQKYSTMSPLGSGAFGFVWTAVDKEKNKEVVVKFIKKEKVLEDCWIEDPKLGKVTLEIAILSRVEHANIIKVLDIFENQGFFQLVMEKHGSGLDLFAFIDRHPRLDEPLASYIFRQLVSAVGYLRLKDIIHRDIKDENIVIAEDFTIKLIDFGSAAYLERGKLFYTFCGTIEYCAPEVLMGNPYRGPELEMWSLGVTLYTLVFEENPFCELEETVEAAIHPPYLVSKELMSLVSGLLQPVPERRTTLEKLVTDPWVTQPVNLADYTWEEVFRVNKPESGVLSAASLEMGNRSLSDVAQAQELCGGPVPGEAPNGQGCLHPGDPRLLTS

| Structure (SMILES) | Kd |
| --- | --- |
| Cc1cn(-c2cc(NC(=O)c3ccc(C)c(Nc4nccc(-c5cccnc5)n4)c3)cc(C(F)(F)F)c2)cn1 [NILOTINIB] | > 30 µM (inactive) |
| C1=C/COCc2cc(ccc2OCCN2CCCC2)Nc2nccc(n2)-c2cccc(c2)COC/1 [PACRITINIB] | > 30 µM (inactive) |
| Cc1ccc(-n2nc(C(C)(C)C)cc2NC(=O)NCc2cc(F)ccc2Oc2ccc3c(cnn3CCO)c2)cc1 [PEXMETINIB] | > 30 µM (inactive) |
| CN1CCC(CNc2ccc3ncc(-c4cccc(OC(F)(F)F)c4)n3n2)CC1 [SGI-1776] | > 30 µM (inactive) |
| O=c1sn(-c2cccc3ccccc23)c(=O)n1Cc1ccccc1 [TIDEGLUSIB] | > 30 µM (inactive) |

Molecular target: Serine/threonine-protein kinase 24 (Homo sapiens, UniProt Q9Y6E0)
Sequence (Q9Y6E0 whole entry): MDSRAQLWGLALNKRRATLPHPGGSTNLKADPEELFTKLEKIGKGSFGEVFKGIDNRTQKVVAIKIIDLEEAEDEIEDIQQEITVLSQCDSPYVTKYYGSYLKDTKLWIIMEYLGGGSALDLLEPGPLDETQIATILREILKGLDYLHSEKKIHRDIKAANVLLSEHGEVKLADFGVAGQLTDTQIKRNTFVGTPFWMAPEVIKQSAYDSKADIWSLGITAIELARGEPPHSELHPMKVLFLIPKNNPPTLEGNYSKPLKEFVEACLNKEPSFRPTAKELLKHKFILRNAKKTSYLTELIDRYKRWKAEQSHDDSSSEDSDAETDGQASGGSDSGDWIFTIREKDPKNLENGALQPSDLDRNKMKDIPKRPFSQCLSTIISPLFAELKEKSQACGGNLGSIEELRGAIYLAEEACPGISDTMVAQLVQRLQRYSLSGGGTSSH

| Structure (SMILES) | Kd |
| --- | --- |
| C1=C/COCc2cc(ccc2OCCN2CCCC2)Nc2nccc(n2)-c2cccc(c2)COC/1 [PACRITINIB] | > 30 µM (inactive) |
| Cc1ccc(-n2nc(C(C)(C)C)cc2NC(=O)NCc2cc(F)ccc2Oc2ccc3c(cnn3CCO)c2)cc1 [PEXMETINIB] | > 30 µM (inactive) |
| CN1CCC(CNc2ccc3ncc(-c4cccc(OC(F)(F)F)c4)n3n2)CC1 [SGI-1776] | > 30 µM (inactive) |
| O=c1sn(-c2cccc3ccccc23)c(=O)n1Cc1ccccc1 [TIDEGLUSIB] | > 30 µM (inactive) |

Molecular target: Myosin-10 (Homo sapiens, UniProt P35580)
Sequence (P35580 whole entry): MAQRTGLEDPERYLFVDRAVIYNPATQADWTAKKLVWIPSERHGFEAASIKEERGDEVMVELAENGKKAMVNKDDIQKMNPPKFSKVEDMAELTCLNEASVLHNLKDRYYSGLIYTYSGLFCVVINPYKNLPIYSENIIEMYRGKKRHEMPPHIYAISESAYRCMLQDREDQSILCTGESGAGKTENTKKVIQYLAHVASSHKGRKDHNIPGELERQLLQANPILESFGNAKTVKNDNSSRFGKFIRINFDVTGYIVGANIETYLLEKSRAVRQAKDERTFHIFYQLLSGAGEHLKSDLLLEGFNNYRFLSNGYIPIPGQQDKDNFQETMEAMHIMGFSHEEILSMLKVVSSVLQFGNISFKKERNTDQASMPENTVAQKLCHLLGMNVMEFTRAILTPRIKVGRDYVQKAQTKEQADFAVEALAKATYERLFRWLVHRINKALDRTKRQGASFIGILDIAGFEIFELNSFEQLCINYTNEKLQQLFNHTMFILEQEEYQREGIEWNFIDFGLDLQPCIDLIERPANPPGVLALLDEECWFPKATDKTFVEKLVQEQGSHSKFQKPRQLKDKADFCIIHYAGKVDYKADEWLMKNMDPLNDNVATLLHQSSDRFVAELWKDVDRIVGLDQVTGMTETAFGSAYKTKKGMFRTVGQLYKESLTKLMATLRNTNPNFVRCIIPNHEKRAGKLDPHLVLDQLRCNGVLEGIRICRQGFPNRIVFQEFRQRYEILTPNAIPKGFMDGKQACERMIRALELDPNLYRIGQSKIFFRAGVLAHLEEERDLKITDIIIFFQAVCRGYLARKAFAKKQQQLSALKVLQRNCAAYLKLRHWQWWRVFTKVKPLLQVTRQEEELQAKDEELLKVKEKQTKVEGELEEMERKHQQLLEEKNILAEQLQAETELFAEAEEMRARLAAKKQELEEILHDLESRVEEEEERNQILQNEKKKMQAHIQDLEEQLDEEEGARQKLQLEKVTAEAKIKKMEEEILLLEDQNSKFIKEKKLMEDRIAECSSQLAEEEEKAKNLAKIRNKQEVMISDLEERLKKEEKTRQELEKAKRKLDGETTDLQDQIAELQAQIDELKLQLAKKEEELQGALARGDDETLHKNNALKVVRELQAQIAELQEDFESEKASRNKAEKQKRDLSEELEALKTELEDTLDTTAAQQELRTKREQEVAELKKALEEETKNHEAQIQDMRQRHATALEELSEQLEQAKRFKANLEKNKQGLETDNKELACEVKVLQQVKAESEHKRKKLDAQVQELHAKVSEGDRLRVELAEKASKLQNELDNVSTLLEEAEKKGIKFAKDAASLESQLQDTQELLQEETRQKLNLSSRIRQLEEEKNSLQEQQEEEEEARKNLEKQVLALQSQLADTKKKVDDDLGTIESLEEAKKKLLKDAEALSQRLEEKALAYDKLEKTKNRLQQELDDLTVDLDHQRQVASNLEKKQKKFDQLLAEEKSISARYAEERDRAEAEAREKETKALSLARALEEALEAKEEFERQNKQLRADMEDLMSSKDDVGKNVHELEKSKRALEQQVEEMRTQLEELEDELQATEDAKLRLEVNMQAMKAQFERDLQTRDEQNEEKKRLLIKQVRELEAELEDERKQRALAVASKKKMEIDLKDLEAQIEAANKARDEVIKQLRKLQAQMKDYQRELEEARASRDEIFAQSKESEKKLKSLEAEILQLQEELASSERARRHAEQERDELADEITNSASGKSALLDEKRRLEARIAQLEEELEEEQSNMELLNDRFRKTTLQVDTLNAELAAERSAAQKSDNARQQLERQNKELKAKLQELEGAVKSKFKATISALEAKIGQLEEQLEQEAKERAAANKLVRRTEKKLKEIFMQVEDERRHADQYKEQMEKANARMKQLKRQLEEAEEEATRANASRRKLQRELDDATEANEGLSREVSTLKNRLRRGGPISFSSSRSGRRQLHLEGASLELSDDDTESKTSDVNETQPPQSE

| Structure (SMILES) | Kd |
| --- | --- |
| Cc1cn(-c2cc(NC(=O)c3ccc(C)c(Nc4nccc(-c5cccnc5)n4)c3)cc(C(F)(F)F)c2)cn1 [NILOTINIB] | > 30 µM (inactive) |
| C1=C/COCc2cc(ccc2OCCN2CCCC2)Nc2nccc(n2)-c2cccc(c2)COC/1 [PACRITINIB] | > 30 µM (inactive) |
| Cc1ccc(-n2nc(C(C)(C)C)cc2NC(=O)NCc2cc(F)ccc2Oc2ccc3c(cnn3CCO)c2)cc1 [PEXMETINIB] | > 30 µM (inactive) |
| CN1CCC(CNc2ccc3ncc(-c4cccc(OC(F)(F)F)c4)n3n2)CC1 [SGI-1776] | > 30 µM (inactive) |

Molecular target: T1, Eukaryotic translation initiation factor 5B (Homo sapiens, UniProt O60841)
T1 sequence (O60841 whole entry): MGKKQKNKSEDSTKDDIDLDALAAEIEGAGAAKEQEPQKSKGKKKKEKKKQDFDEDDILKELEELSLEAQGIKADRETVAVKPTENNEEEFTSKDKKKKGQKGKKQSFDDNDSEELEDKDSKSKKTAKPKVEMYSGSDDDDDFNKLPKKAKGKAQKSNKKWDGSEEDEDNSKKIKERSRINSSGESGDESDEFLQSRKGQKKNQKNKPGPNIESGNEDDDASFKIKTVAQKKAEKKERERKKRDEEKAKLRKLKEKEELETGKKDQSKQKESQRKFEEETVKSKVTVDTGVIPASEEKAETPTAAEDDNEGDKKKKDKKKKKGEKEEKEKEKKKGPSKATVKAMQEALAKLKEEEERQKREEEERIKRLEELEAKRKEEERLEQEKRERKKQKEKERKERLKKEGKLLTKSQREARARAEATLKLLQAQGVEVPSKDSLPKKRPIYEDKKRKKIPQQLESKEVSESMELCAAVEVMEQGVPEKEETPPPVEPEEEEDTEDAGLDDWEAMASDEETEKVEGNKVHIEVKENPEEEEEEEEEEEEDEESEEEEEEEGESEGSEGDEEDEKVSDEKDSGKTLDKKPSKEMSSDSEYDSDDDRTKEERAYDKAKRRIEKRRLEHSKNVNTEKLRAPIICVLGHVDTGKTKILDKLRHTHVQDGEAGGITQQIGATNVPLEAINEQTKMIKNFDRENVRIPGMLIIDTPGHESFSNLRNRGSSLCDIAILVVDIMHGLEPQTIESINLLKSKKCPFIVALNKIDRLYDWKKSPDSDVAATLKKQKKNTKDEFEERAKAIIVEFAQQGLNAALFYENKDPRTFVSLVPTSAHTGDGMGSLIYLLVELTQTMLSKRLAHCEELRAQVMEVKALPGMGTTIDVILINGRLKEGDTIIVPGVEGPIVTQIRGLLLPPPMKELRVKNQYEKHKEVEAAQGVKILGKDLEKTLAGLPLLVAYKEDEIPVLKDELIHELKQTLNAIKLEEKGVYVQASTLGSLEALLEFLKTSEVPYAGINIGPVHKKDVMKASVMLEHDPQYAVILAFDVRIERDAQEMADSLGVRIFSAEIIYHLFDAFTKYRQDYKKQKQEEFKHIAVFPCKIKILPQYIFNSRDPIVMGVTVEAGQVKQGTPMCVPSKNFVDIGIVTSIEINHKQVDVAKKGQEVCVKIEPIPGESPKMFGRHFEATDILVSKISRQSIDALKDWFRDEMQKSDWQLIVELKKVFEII

| Structure (SMILES) | Kd |
| --- | --- |
| Cc1cn(-c2cc(NC(=O)c3ccc(C)c(Nc4nccc(-c5cccnc5)n4)c3)cc(C(F)(F)F)c2)cn1 [NILOTINIB] | > 30 µM (inactive) |
| C1=C/COCc2cc(ccc2OCCN2CCCC2)Nc2nccc(n2)-c2cccc(c2)COC/1 [PACRITINIB] | > 30 µM (inactive) |
| Cc1ccc(-n2nc(C(C)(C)C)cc2NC(=O)NCc2cc(F)ccc2Oc2ccc3c(cnn3CCO)c2)cc1 [PEXMETINIB] | > 30 µM (inactive) |

Molecular target: G protein-coupled receptor kinase 6 (Homo sapiens, UniProt P43250)
Sequence (P43250 whole entry): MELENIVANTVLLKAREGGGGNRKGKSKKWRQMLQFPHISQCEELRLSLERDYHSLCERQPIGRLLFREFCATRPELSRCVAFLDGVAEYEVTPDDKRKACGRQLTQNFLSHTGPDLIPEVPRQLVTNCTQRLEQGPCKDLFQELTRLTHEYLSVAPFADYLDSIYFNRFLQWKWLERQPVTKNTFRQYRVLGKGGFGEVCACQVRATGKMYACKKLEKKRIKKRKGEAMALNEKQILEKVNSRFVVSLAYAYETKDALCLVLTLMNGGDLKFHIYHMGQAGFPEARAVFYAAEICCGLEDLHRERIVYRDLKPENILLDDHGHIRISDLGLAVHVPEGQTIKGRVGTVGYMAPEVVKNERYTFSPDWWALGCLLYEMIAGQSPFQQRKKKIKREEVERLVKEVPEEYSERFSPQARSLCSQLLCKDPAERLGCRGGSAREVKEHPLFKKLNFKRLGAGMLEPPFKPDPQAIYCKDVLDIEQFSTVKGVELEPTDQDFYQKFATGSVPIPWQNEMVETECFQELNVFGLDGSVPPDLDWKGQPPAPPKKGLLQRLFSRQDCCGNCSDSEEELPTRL

| Structure (SMILES) | Kd |
| --- | --- |
| Cc1cn(-c2cc(NC(=O)c3ccc(C)c(Nc4nccc(-c5cccnc5)n4)c3)cc(C(F)(F)F)c2)cn1 [NILOTINIB] | > 30 µM (inactive) |
| Cc1ccc(-n2nc(C(C)(C)C)cc2NC(=O)NCc2cc(F)ccc2Oc2ccc3c(cnn3CCO)c2)cc1 [PEXMETINIB] | > 30 µM (inactive) |
| CN1CCC(CNc2ccc3ncc(-c4cccc(OC(F)(F)F)c4)n3n2)CC1 [SGI-1776] | > 30 µM (inactive) |
| O=c1sn(-c2cccc3ccccc23)c(=O)n1Cc1ccccc1 [TIDEGLUSIB] | > 30 µM (inactive) |

Molecular target: T2, ATP-dependent RNA helicase DHX30 (Homo sapiens, UniProt Q7L2E3)
T2 sequence (Q7L2E3 whole entry): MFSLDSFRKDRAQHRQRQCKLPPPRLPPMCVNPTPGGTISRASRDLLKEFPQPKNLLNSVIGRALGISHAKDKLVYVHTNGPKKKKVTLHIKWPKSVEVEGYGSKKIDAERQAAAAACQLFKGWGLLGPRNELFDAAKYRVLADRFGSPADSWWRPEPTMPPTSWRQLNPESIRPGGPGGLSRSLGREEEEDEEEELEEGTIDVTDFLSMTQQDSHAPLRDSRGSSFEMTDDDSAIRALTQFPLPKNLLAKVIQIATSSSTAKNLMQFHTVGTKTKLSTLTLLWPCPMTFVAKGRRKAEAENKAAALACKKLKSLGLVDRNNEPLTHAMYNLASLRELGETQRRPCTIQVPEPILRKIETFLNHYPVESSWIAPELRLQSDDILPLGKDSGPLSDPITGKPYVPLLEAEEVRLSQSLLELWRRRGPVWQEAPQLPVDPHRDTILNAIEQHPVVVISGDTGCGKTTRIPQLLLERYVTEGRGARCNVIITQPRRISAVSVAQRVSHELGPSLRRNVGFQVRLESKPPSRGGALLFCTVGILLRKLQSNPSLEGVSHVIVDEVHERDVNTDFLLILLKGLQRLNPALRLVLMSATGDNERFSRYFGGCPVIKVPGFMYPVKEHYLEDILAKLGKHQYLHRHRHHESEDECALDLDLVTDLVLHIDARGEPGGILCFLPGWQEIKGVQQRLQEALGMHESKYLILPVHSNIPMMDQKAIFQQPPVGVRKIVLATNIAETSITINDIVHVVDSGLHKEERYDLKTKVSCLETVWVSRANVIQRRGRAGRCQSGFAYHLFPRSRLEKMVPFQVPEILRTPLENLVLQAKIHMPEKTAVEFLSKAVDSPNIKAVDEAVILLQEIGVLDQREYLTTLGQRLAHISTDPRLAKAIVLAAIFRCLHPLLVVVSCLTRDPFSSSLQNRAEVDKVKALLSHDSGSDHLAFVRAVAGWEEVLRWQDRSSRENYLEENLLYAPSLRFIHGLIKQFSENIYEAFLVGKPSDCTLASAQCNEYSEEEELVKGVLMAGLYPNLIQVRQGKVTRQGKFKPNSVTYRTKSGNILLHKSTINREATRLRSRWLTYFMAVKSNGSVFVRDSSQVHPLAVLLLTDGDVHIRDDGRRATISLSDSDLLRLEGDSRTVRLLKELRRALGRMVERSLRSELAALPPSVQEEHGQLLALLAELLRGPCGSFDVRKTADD

| Structure (SMILES) | Kd |
| --- | --- |
| Cc1cn(-c2cc(NC(=O)c3ccc(C)c(Nc4nccc(-c5cccnc5)n4)c3)cc(C(F)(F)F)c2)cn1 [NILOTINIB] | > 30 µM (inactive) |
| Cc1ccc(-n2nc(C(C)(C)C)cc2NC(=O)NCc2cc(F)ccc2Oc2ccc3c(cnn3CCO)c2)cc1 [PEXMETINIB] | > 30 µM (inactive) |

Molecular target: T3, Adenine phosphoribosyltransferase (Homo sapiens, UniProt P07741)
T3 sequence (P07741 whole entry): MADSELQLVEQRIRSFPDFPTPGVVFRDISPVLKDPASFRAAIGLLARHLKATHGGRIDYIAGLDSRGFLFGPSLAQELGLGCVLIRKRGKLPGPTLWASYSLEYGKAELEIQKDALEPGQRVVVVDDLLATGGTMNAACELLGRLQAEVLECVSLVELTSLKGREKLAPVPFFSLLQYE

| Structure (SMILES) | Kd |
| --- | --- |
| C1=C/COCc2cc(ccc2OCCN2CCCC2)Nc2nccc(n2)-c2cccc(c2)COC/1 [PACRITINIB] | > 30 µM (inactive) |
| Cc1ccc(-n2nc(C(C)(C)C)cc2NC(=O)NCc2cc(F)ccc2Oc2ccc3c(cnn3CCO)c2)cc1 [PEXMETINIB] | > 30 µM (inactive) |
| CN1CCC(CNc2ccc3ncc(-c4cccc(OC(F)(F)F)c4)n3n2)CC1 [SGI-1776] | > 30 µM (inactive) |
| O=c1sn(-c2cccc3ccccc23)c(=O)n1Cc1ccccc1 [TIDEGLUSIB] | > 30 µM (inactive) |

Molecular target: Dual specificity testis-specific protein kinase 2 (Homo sapiens, UniProt Q96S53)

| Structure (SMILES) | Kd |
| --- | --- |
| Cc1cn(-c2cc(NC(=O)c3ccc(C)c(Nc4nccc(-c5cccnc5)n4)c3)cc(C(F)(F)F)c2)cn1 [NILOTINIB] | > 30 µM (inactive) |
| CN1CCC(CNc2ccc3ncc(-c4cccc(OC(F)(F)F)c4)n3n2)CC1 [SGI-1776] | > 30 µM (inactive) |

Molecular target: Obg-like ATPase 1 (Homo sapiens, UniProt Q9NTK5)
Sequence (Q9NTK5 whole entry, looked up): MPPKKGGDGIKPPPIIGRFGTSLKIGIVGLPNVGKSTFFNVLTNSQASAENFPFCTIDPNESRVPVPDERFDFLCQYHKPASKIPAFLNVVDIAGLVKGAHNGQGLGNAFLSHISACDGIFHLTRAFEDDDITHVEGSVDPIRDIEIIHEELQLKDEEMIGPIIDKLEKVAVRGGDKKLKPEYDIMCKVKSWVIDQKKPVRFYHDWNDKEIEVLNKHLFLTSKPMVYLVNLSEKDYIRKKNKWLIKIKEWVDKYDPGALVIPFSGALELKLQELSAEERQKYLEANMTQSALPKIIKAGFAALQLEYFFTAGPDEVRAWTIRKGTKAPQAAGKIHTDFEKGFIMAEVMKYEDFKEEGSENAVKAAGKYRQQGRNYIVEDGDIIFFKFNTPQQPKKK

| Structure (SMILES) | Kd |
| --- | --- |
| Cc1cn(-c2cc(NC(=O)c3ccc(C)c(Nc4nccc(-c5cccnc5)n4)c3)cc(C(F)(F)F)c2)cn1 [NILOTINIB] | > 30 µM (inactive) |
| C1=C/COCc2cc(ccc2OCCN2CCCC2)Nc2nccc(n2)-c2cccc(c2)COC/1 [PACRITINIB] | > 30 µM (inactive) |
| Cc1ccc(-n2nc(C(C)(C)C)cc2NC(=O)NCc2cc(F)ccc2Oc2ccc3c(cnn3CCO)c2)cc1 [PEXMETINIB] | > 30 µM (inactive) |
| CN1CCC(CNc2ccc3ncc(-c4cccc(OC(F)(F)F)c4)n3n2)CC1 [SGI-1776] | > 30 µM (inactive) |
| O=c1sn(-c2cccc3ccccc23)c(=O)n1Cc1ccccc1 [TIDEGLUSIB] | > 30 µM (inactive) |
